According to patent US11344709B2, “Fluid delivery apparatus having a controller assembly and method of use” (SORRENTO THERAPEUTICS, INC., priority 2016, dated 2022):
Like-named read-outs stand apart in the source and are kept apart here.

Legend:
[1] = FIG. 49, cited from earlier work
[2] = Porcine Pharmacokinetic Study (FIG. 50): sumatriptan in blood serum after delivery from the fluid delivery apparatus; type: in vivo, Yorkshire pigs; settings: 20 mg dose from the fluid delivery apparatus (microneedles), pig; actual profile FIG. 50 compared with nasal, oral and Zecuity (FIG. 49)
Description: In reference to FIG. 50, shown is the time versus concentration profile of sumatriptan as administered according to the methods and devices disclosed herein. An ideal profile (identified as “Target PK Profile”) is calculated based on the therapeutic efficiency of the medicament.
Thirty five 80 kg castrated or female Yorkshire pigs were placed under anesthesia and a catheter was inserted into the right or left jugular vein. After the catheter was placed, the pigs were kept under anesthesia and placed on their backs. The ventral region was shaved and covered with a depilatory cream (Nair Sensitive®) for 8 minutes. The cream was removed and the area washed with alcohol. The fluid delivery apparatus was placed against the skin with an adhesive and the microneedles (100 total) were inserted at a post traveling velocity of 6 m/s. A 20 mg dose of sumatriptan from the fluid deliver apparatus was delivered while the pig was under anesthesia. 3 mL blood samples were withdrawn at each time point and spun down to recover the blood serum.

[3] = nasal administration, compared with actual profile of the fluid delivery apparatus (FIG. 50)
[4] = subcutaneous administration, compared with the other routes of administration

CNS(=O)(=O)Cc1ccc2[nH]cc(CCN(C)C)c2c1.O=C(O)CCC(=O)O [sumatriptan, 1-[3-[2-(dimethylamino)ethyl]-1H-indol-5-yl]-N-methylmethanesulfonamide butanedioic acid]
AUC [1, 3]: significantly lower
Css [1, 3]: significantly lower
Tmax ([1]; oral administration, compared with actual profile of the fluid delivery apparatus (FIG. 50)): much slower
Css ([1]; subcutaneous administration): significantly lower as time progresses
Cmax [1, 4]: higher
Tmax [1, 4]: much faster
AUC [2]: significantly improved
Css [2]: significantly improved
Tmax [2]: significantly improved
